Data published in patent US5210193A, “Piperazine derivatives” (American Cyanamid Company, priority 1990, dated 1993).
Values after ≈ are worked out from the molar mass of the structure shown. Values joined by “and” are separate entries in the source; they are usually repeats but may differ in a detail not shown here. Equal values may be shown once. Read-outs that look alike come from different tables or passages of the source. Each block holds one compound with its values, some of them ahead of it.

How the values were obtained:
Assay in all cases: in vitro antibacterial MIC, agar plate dilution
Format in all cases: cell-based
[1] = tested on: Staphylococcus aureus ATTC 29213; conditions: Staphylococcus aureus, ATTC29213, 18 h, 35° C., read-out: MIC
Outline: (§1)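 Agar plate dilution on Mueller-Hinton agar, inoculum approximately 10^4 CFU per organism applied with a Steers replicator. MIC (mcg/ml) is the lowest compound concentration inhibiting visible growth after 18 hours at 35° C.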

[2] = tested on: Serratia marcescens MOR 84-41; conditions: 35° C.
Outline: as §1

[3] = tested on: Escherichia coli VGH 84-19; conditions: 35° C.
Outline: as §1

[4] = tested on: Enterobacter cloacae K 84-10; conditions: 35° C.
Outline: as §1

[5] = tested on: Escherichia coli CMC 84-50; conditions: 35° C.
Outline: as §1

[6] = tested on: Escherichia coli MOR 84-20; conditions: 35° C.
Outline: as §1

[7] = tested on: Escherichia coli ATCC 25922; conditions: 35° C.
Outline: as §1

[8] = tested on: Klebsiella pneumoniae IO 83-5; conditions: 35° C.
Outline: as §1

[9] = tested on: Streptococcus faecalis CMC 83-120; conditions: 35° C.
Outline: as §1

[10] = tested on: Staphylococcus aureus VGH 84-47; conditions: 35° C.
Outline: as §1

[11] = tested on: Serratia marcescens CMC 83-74; conditions: 35° C.
Outline: as §1

[12] = tested on: Providencia stuarti CMC 83-3; conditions: 35° C.
Outline: as §1

[13] = tested on: Morganella morganii CMC 84-38; conditions: 35° C.
Outline: as §1

[14] = tested on: Pseudomonas aeruginosa VGH 84-3; conditions: 35° C.
Outline: as §1

[15] = tested on: Staphylococcus aureus CMC 83-131; conditions: 35° C.
Outline: as §1

[16] = tested on: Morganella morganii MOR 84-45; conditions: 35° C.
Outline: as §1

[17] = tested on: Staphylococcus aureus K 82-26; conditions: 35° C.
Outline: as §1

[18] = tested on: Enterobacter cloacae VGH 84-39; conditions: 35° C.
Outline: as §1

[19] = tested on: Pseudomonas aeruginosa K 84-16; conditions: 35° C.
Outline: as §1

[20] = tested on: Enterobacter cloacae MOR 84-30; conditions: 35° C.
Outline: as §1

Citrobacter div. K 82-24 = conditions: 35° C.
Outline: as §1

[21] = tested on: Proteus rettgeri IO 83-21; conditions: 35° C.
Outline: as §1

[22] = tested on: Streptococcus faecalis VGH 84-69; conditions: 35° C.
Outline: as §1

[23] = tested on: Streptococcus faecalis UCI 85-30; conditions: 35° C.
Outline: as §1

[24] = tested on: Morganella morganii VHG 84-12; conditions: Morganella morganii VHG 84-12 (VGH 84-12 for Example 131), 35° C.
Outline: as §1

[25] = tested on: Klebsiella pneumoniae MOR 84-24; conditions: 35° C.
Outline: as §1

[26] = tested on: Pseudomonas aeruginosa CMC 83-20; conditions: 35° C.
Outline: as §1

[27] = tested on: Klebsiella pneumoniae CMC 84-31; conditions: 35° C.
Outline: as §1

[28] = tested on: Staphylococcus aureus VGH 84-45; conditions: 18 hours, 35° C.
Outline: as §1

[29] = tested on: Streptococcus faecalis UCI 85-19; conditions: 18 hours, 35° C.
Outline: as §1

[30] = tested on: Streptococcus faecalis VGH 84-65; conditions: 18 hours, 35° C.
Outline: as §1

[31] = tested on: Staphylococcus aureus Smith; conditions: 18 hours, 35° C.
Outline: as §1

[32] = tested on: Morganella morganii CMC 84-37; conditions: 18 hours, 35° C.
Outline: as §1

Escherichia coli LL 311 = conditions: Escherichia coli, LL311, 18 h, 35° C., read-out: MIC
Outline: as §1

[33] = tested on: Serratia marcescens VGH 84-30; conditions: Serratia marcescens, VGH8430, 18 h, 35° C., read-out: MIC
Outline: as §1

[34] = tested on: Escherichia coli CMC 84-11; conditions: Escherichia coli, CMC8411, 18 h, 35° C., read-out: MIC
Outline: as §1

[35] = tested on: Serratia marcescens K 84-18; conditions: 18 hours, 35° C.
Outline: as §1

[36] = tested on: Pseudomonas aeruginosa VGH 84-4; conditions: 18 hours, 35° C.
Outline: as §1

[37] = tested on: Proteus rettgeri CMC 84-41; conditions: Providencia rettgeri, CMC8441, 18 h, 35° C., read-out: MIC
Outline: as §1

[38] = tested on: Pseudomonas aeruginosa LL-1244; conditions: 18 hours, 35° C.
Outline: as §1

MIC [1]: 0.12 µg/mL (≈ 0.303 µM)
MIC ([2]; Serratia marcescens, MOR8441, 18 h, read-out: MIC): 0.5 µg/mL (≈ 1.26 µM)
MIC ([3]; Escherichia coli, VGH8419, 18 h, read-out: MIC): 0.015 µg/mL (≈ 0.0378 µM)
MIC ([4]; Enterobacter cloacae, K8410, 18 h, read-out: MIC): 0.3 µg/mL (≈ 0.757 µM)
MIC ([5]; Escherichia coli, CMC8450, 18 h, read-out: MIC): 0.03 µg/mL (≈ 0.0757 µM)
MIC ([6]; Escherichia coli, MOR8420, 18 h, read-out: MIC): 0.015 µg/mL (≈ 0.0378 µM)
MIC ([7]; Escherichia coli, ATCC25922, 18 h, read-out: MIC): 0.008 µg/mL (≈ 0.0202 µM)
MIC ([8]; Klebsiella pneumoniae, IO835, 18 h, read-out: MIC): 0.12 µg/mL (≈ 0.303 µM)
MIC ([9]; Enterococcus faecalis, CMC83120, 18 h, read-out: MIC): 0.2 µg/mL (≈ 0.505 µM)
MIC ([10]; Staphylococcus aureus, VGH8447, 18 h, read-out: MIC): 0.12 µg/mL (≈ 0.303 µM)
MIC ([11]; Serratia marcescens, CMC8374, 18 h, read-out: MIC): 16 µg/mL (≈ 40.4 µM)
MIC ([12]; Providencia, CMC833, 18 h, read-out: MIC): 4 µg/mL (≈ 10.1 µM)
MIC ([13]; Morganella morganii, CMC8438, 18 h, read-out: MIC): 0.06 µg/mL (≈ 0.151 µM)
MIC ([14]; Pseudomonas aeruginosa, VGH843, 18 h, read-out: MIC): 8 µg/mL (≈ 20.2 µM)
MIC ([15]; Staphylococcus aureus, CMC83131, 18 h, read-out: MIC): 0.25 µg/mL (≈ 0.631 µM)
MIC ([16]; Morganella morganii, MOR8445, 18 h, read-out: MIC): 0.03 µg/mL (≈ 0.0757 µM)
MIC ([17]; Staphylococcus aureus, K8226, 18 h, read-out: MIC): 0.5 µg/mL (≈ 1.26 µM)
MIC ([18]; Enterobacter cloacae, VGH8439, 18 h, read-out: MIC): 0.06 µg/mL (≈ 0.151 µM)
MIC ([19]; Pseudomonas aeruginosa, K8416, 18 h, read-out: MIC): 4 µg/mL (≈ 10.1 µM)
MIC ([20]; Enterobacter cloacae, MOR8430, 18 h, read-out: MIC): 0.5 µg/mL (≈ 1.26 µM)
MIC (Citrobacter div. K 82-24; Citrobacter, DIV.K8224, 18 h, read-out: MIC): 0.03 µg/mL (≈ 0.0757 µM)
MIC ([21]; Providencia rettgeri, IO8321, 18 h, read-out: MIC): 0.12 µg/mL (≈ 0.303 µM)
MIC ([22]; Enterococcus faecalis, VGH8469, 18 h, read-out: MIC): 0.5 µg/mL (≈ 1.26 µM)
MIC ([23]; Enterococcus faecalis, UCI8530, 18 h, read-out: MIC): 1 µg/mL (≈ 2.52 µM)
MIC ([24]; Morganella morganii, VHG8412, 18 h, read-out: MIC): 0.5 µg/mL (≈ 1.26 µM)
MIC ([25]; Klebsiella pneumoniae, MOR8424, 18 h, read-out: MIC): 0.12 µg/mL (≈ 0.303 µM)
MIC ([26]; Pseudomonas aeruginosa, CMC8320, 18 h, read-out: MIC): 2 µg/mL (≈ 5.05 µM)
MIC ([27]; Klebsiella pneumoniae, CMC8431, 18 h, read-out: MIC): 0.06 µg/mL (≈ 0.151 µM)
Compound: O=C(O)c1cn(C2CC2)c2cc(N3CCNC(c4cc[nH]c4)C3)c(F)cc2c1=O (stereo not shown) [Example 119]

MIC ([2]; 18 hours): 0.12 µg/mL (≈ 0.323 µM)
MIC [28]: 0.06 µg/mL (≈ 0.162 µM)
MIC ([3]; 18 hours): 0.015 µg/mL (≈ 0.0404 µM)
MIC ([4]; 18 hours): 0.015 µg/mL (≈ 0.0404 µM)
MIC [29]: 2 µg/mL (≈ 5.38 µM)
MIC ([5]; 18 hours): 0.03 µg/mL (≈ 0.0808 µM)
MIC [30]: 1 µg/mL (≈ 2.69 µM)
MIC ([6]; 18 hours): 0.015 µg/mL (≈ 0.0404 µM)
MIC ([7]; 18 hours): < 0.015 µg/mL and 0.008 µg/mL
MIC ([8]; 18 hours): 0.06 µg/mL (≈ 0.162 µM)
MIC ([9]; 18 hours): 1 µg/mL (≈ 2.69 µM)
MIC ([10]; 18 hours): 0.25 µg/mL (≈ 0.673 µM)
MIC ([11]; 18 hours): 8 µg/mL (≈ 21.5 µM)
MIC ([12]; 18 hours): 4 µg/mL (≈ 10.8 µM)
MIC [31]: 0.06 µg/mL (≈ 0.162 µM)
MIC [32]: 0.06 µg/mL (≈ 0.162 µM)
MIC (Escherichia coli LL 311): 0.03 µg/mL (≈ 0.0808 µM)
MIC ([13]; 18 hours): 0.03 µg/mL (≈ 0.0808 µM)
MIC ([14]; 18 hours): 8 µg/mL (≈ 21.5 µM)
MIC ([15]; 18 hours): 0.5 µg/mL (≈ 1.35 µM)
MIC ([16]; 18 hours): 0.015 µg/mL (≈ 0.0404 µM)
MIC ([17]; 18 hours): 1 µg/mL (≈ 2.69 µM)
MIC ([18]; 18 hours): 0.03 µg/mL (≈ 0.0808 µM)
MIC [33]: 2 µg/mL (≈ 5.38 µM)
MIC [34]: 0.03 µg/mL (≈ 0.0808 µM)
MIC [35]: 0.12 µg/mL (≈ 0.323 µM)
MIC ([19]; 18 hours): 4 µg/mL (≈ 10.8 µM)
MIC ([20]; 18 hours): 0.5 µg/mL (≈ 1.35 µM)
MIC (Citrobacter div. K 82-24; 18 hours): 0.03 µg/mL (≈ 0.0808 µM)
MIC ([21]; 18 hours): 0.12 µg/mL (≈ 0.323 µM)
MIC [36]: 2 µg/mL (≈ 5.38 µM)
MIC ([22]; 18 hours): 1 µg/mL (≈ 2.69 µM)
MIC ([23]; 18 hours): 2 µg/mL (≈ 5.38 µM)
MIC [37]: 0.06 µg/mL (≈ 0.162 µM)
MIC ([24]; 18 hours): 0.12 µg/mL (≈ 0.323 µM)
MIC [38]: 4 µg/mL (≈ 10.8 µM)
MIC ([25]; 18 hours): 0.06 µg/mL (≈ 0.162 µM)
MIC ([26]; 18 hours): 4 µg/mL (≈ 10.8 µM)
MIC ([27]; 18 hours): 0.03 µg/mL (≈ 0.0808 µM)
Compound: O=C(O)c1cn(C2CC2)c2cc(N3CCNC(C4CC4)C3)c(F)cc2c1=O (stereo not shown) [Example 124, 1-Cyclopropyl-7-(3-cvclopropyl-1-piperazinyl)-6-fluoro-1,4-dihydro-4-oxo-3-quinolinecarboxvlic acid,]
